Measurements published in patent publication EP3521435A1, “A HIGH STRINGENCY SELECTION SYSTEM FOR PROTEIN EXPRESSION IN PROLINE-AUXOTROPHIC CELLS” (Bayer AG, priority 2018, dated 2019).

Tests used:
[1] = tested on: CHO-K1 cells; assay: Flow cytometric analysis of GFP expression (MFI, high fluorescing cells) in stably selected cell populations; type: cell-based, Chinese hamster; conditions: day 15 post-transfection, pJF1555
Protocol: (§1) To efficiently test the impact of different procedures on improving selection stringency, experimental testing in stable cell populations was performed. As test molecules, enhanced green fluorescent protein (GFP) as well as a human IgG1 were chosen. CHO-K1 cells adapted to growth in suspension in defined medium were obtained from SAFC and cultivated in EX-CELL CD CHO Fusion medium (SAFC 14365C). Custom-made EX-CELL CD CHO Fusion medium without L-Proline (Pro) and without L-Ornithine (Orn) ("proline-free medium") was obtained from SAFC. The expression vector system was based on modified versions of "CET 1019 AS-puro-SceI" and "CET 1019 AD-puro-SceI" for GFP and human IgG1, respectively, from Merck-Millipore, containing the Puromycin selection marker (Puromycin N-acetyl-transferase) known to exert a high selection stringency. To minimize variations in cell populations derived from using different transfections or different vectors, the first series of experiments were conducted using vectors into which a P5CS expression cassette was cloned upstream of a UCOE element, in addition to the Puromycin selection marker present downstream of a gene of interest. This way, it was possible to pool different transfections using the same vector to obtain a common starting point, and split the mixture according to different selection conditions, minimizing any variations that are not due to selection conditions themselves. Expression of long and short isoform of murine P5CS (Protein: Delta-1-pyrroline-5-carboxylate synthase; Gene: Aldh18a1; UniProtKB accession number: Q9Z110-1 & Q9Z110-2) was driven by a SV40 promoter. A SV40 polyadenylation sequence was used at the 3' end of the gene. More details can be found in Table 1. Typically, CHO cells were cultivated in EX-CELL CD CHO Fusion medium containing 6 mM GlutaMAX (Thermo Fisher, 35050-38) ("CD-Fusion medium") at 37 °C with 5% CO2. Cells were grown to logarithmic phase under shaking conditions for transfections. 1e7 cells/cuvette were transfected using nucleofection (Amaxa Nucleofector II, following the manufacturer's recommendations) with 5 µg of linearized DNA. After transfection, cells were taken up in 1 ml medium and transferred into 1 well of a 6 well microtiter plate (MTP) already containing 1 ml medium. The cells were incubated for 24 h without shaking, after which 9 ml medium were added and cells were washed (either in standard or proline-free medium). Multiple transfections were pooled, if applicable. Cells were adjusted to 2e5 viable cells/ml and 10 ml were transferred to T-25 flasks. Reference cell populations were selected using 10 µg/ml Puromycin in CD-Fusion medium. For P5CS-based selection, EX-CELL CD CHO Fusion medium (custom-made, SAFC) containing 6 mM GlutaMAX without proline and without ornithine was used ("proline-free" or "CD-Fusion w/o Pro" medium), with or without additional selection pressure.
(§2) Cell viability of the different populations was monitored over time. As soon as cell populations appeared to recover from selection pressure, cells were transferred to Shake Flask or TubeSpins for expansion in suspension under shaking conditions. Subsequently, stable cell populations transfected with IgG were seeded at 2e5 viable cells/ml for batch fermentation without selection pressure (i.e. standard CD-Fusion medium containing proline and no other selective agents). The cells were cultivated for 5-10 days, viable cell densities and productivity were monitored over time. IgG titers were determined using Poros A-HPLC method. Typically, final batch titers were recorded at a time point at which majority of cultures had around 70% viability. Stable cell populations transfected with GFP vector were subjected to analysis by flow cytometry using Guava easyCyte 8HT Benchtop Flow Cytometer (Millipore). 250 µl of cell culture were transferred to 96 MTP and washed with PBS. Dead cells were excluded from analysis using propidium iodide (PI). […]

[2] = tested on: CHO-K1 cells; assay: Batch fermentation in shake flasks of human IgG1 expressing stable cell populations (Poros A-HPLC titer, viable cell density, viability); type: cell-based, Chinese hamster; conditions: human IgG1, pJF1576, non-selecting conditions
Protocol: as §1, §2

[3] = CD-Fusion w/o Pro + 0.2 mM Orn + 10 µg/ml Puromycin
[4] = CD-Fusion w/o Pro + 1 mM Orn + 10 µg/ml Puromycin
[5] = CD-Fusion w/o Pro + 5 mM Orn + 10 µg/ml Puromycin

NCCC[C@H](N)C(=O)O [Orn, L-Ornithine] was tested. Which “Frequency of high fluorescing cells” value ([1]; CD-Fusion w/o Pro + 0.2 mM Orn) did it give?
Its value is 2.4%.

What about the “Median Fluorescence Intensity (MFI) (yellow)” value (“Median Fluorescence Intensity” for short) ([1]; CD-Fusion w/o Pro + 0.2 mM Orn) of the same molecule?
Its value is 3337.

And the “Frequency of high fluorescing cells” value [1, 3]?
Its value is 4.1%.

And the “Median Fluorescence Intensity” value [1, 3]?
Its value is 4665.

What about the “Frequency of high fluorescing cells” value ([1]; CD-Fusion w/o Pro + 0.25 mM Ornithine) of the same molecule?
Its value is 6.3%.

And the “Frequency of high fluorescing cells” value ([1]; CD-Fusion w/o Pro + 0.5 mM Ornithine)?
Its value is 4.1%.

And the “Frequency of high fluorescing cells” value ([1]; CD-Fusion w/o Pro + 1 mM Orn)?
The value was 2.4%.

What about the “Median Fluorescence Intensity” value ([1]; CD-Fusion w/o Pro + 1 mM Orn) of the same molecule?
The value was 3121.

What about the “Frequency of high fluorescing cells” value [1, 4] of the same molecule?
The value was 2.8%.

And the “Median Fluorescence Intensity” value [1, 4]?
Its value is 3739.

What about the “Frequency of high fluorescing cells” value ([1]; CD-Fusion w/o Pro + 1 mM Ornithine) of the same molecule?
The value was 2.3%.

What about the “Frequency of high fluorescing cells” value ([1]; CD-Fusion w/o Pro + 2 mM Ornithine) of the same molecule?
The value was 0.7%.

And the “Frequency of high fluorescing cells” value ([1]; CD-Fusion w/o Pro + 3 mM Ornithine)?
Its value is 2.6%.

And the “Frequency of high fluorescing cells” value ([1]; CD-Fusion w/o Pro + 4 mM Ornithine)?
Its value is 1.5%.

And the “Frequency of high fluorescing cells” value ([1]; CD-Fusion w/o Pro + 5 mM Orn)?
The value was 0.5%.

And the “Median Fluorescence Intensity” value ([1]; CD-Fusion w/o Pro + 5 mM Orn)?
Its value is 1435.

And the “Frequency of high fluorescing cells” value [1, 5]?
The value was 6.1%.

And the “Median Fluorescence Intensity” value [1, 5]?
Its value is 4103.

And the “Frequency of high fluorescing cells” value ([1]; CD-Fusion w/o Pro + 5 mM Ornithine)?
Its value is 1.7%.

And the “Batch titer day 7” value ([2]; selected in CD-Fusion w/o Pro + 0.2 mM Orn + 10 µg/ml Puromycin)?
The value was 173 mg/L.

And the “Batch titer day 7” value ([2]; selected in CD-Fusion w/o Pro + 0.2 mM Orn)?
The value was 120 mg/L.

And the “Batch titer day 7” value ([2]; selected in CD-Fusion w/o Pro + 1 mM Orn + 10 µg/ml Puromycin)?
The value was 159 mg/L.

And the “Batch titer day 7” value ([2]; selected in CD-Fusion w/o Pro + 1 mM Orn)?
The value was 135 mg/L.

What about the “Batch titer day 7” value ([2]; selected in CD-Fusion w/o Pro + 5 mM Orn + 10 µg/ml Puromycin) of the same molecule?
The value was 38 mg/L.

And the “Batch titer day 7” value ([2]; selected in CD-Fusion w/o Pro + 5 mM Orn)?
The value was 9 mg/L.
